Measured values as given in ChEMBL document CHEMBL1201862, “PubChem BioAssay data set” (2004).
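Compound exposure: 48 hours, 5 concentrations, 96-well plates. At the GI50, growth is halved.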 Active and inactive are the calls of the source. Rule as the data show it: active = GI50 up to about 1.1 µM and inactive = higher.

Key:
Assay in all cases: NCI tumour cell line growth inhibition, 48 h
HOP-18 = tested on: HOP-18
LXFL 529 = tested on: LXFL 529
SF-268 = tested on: SF-268
M19-MEL = tested on: M19-MEL
HOP-92 = tested on: HOP-92
IGROV-1 = tested on: IGROV-1
KM-20L2 = tested on: KM-20L2
HCT-15 = tested on: HCT-15
DMS-114 = tested on: DMS-114
TK-10 = tested on: TK-10
CCRF-CEM = tested on: CCRF-CEM
RXF 393 = tested on: RXF 393
OVCAR-3 = tested on: OVCAR-3
SF-295 = tested on: SF-295
SW-620 = tested on: SW-620
HCC 2998 = tested on: HCC 2998
KM12 = tested on: KM12
U-251 = tested on: U-251
SR = tested on: SR

Compound	GI50 (HOP-18)	GI50 (LXFL 529)	GI50 (SF-268)	GI50 (M19-MEL)	GI50 (HOP-92)	GI50 (IGROV-1)	GI50 (KM-20L2)	GI50 (HCT-15) [µM]	GI50 (DMS-114)	GI50 (TK-10)	GI50 (CCRF-CEM)	GI50 (RXF 393)	GI50 (OVCAR-3)	GI50 (SF-295)	GI50 (SW-620)	GI50 (HCC 2998)	GI50 (KM12)	GI50 (U-251)	GI50 (SR)
O=C(N/N=C(\c1nc2ccc(Cl)cc2nc1O)C(O)c1ccccc1Cl)c1ccncc1 (stereo unspecified)	> 100 µM (inactive)	> 100 µM (inactive)	> 100 µM (inactive)	> 100 µM (inactive)	> 100 µM (inactive)	> 100 µM (inactive)	> 100 µM (inactive)	> 100	> 100 µM (inactive)	> 100 µM (inactive)	> 100 µM (inactive)	> 100 µM (inactive)	> 100 µM (inactive)	> 100 µM (inactive)	> 100 µM (inactive)	> 100 µM (inactive)	> 100 µM (inactive)		
BrC/C=C/C[P+](c1ccccc1)(c1ccccc1)c1ccccc1	67 µM (inactive)	1.7 µM (inactive)	15.7 µM (inactive)	10.8 µM (inactive)	11.7 µM (inactive)	55.5 µM (inactive)	27.2 µM (inactive)		27.5 µM (inactive)	11.6 µM (inactive)	> 100 µM (inactive)		7.28 µM (inactive)	13.1 µM (inactive)	6.52 µM (inactive)	35.2 µM (inactive)	4.29 µM (inactive)	24 µM (inactive)	
CC(=O)NC1=C(NC(C)(C)C)C(=O)c2ccccc2C1=O	14.8 µM (inactive)	15.2 µM (inactive)	26.9 µM (inactive)	15.4 µM (inactive)	19.1 µM (inactive)	30.2 µM (inactive)	18.7 µM (inactive)	17.3	20.6 µM (inactive)	19.3 µM (inactive)	2.35 µM (inactive)	17.9 µM (inactive)	15.6 µM (inactive)	42.7 µM (inactive)	14.1 µM (inactive)	> 100 µM (inactive)	30.3 µM (inactive)	37 µM (inactive)	
Cc1cccc(-n2c(=S)[nH]c3c(sc(=O)n3-c3ccccc3C)c2=O)c1	> 100 µM (inactive)	> 100 µM (inactive)	> 100 µM (inactive)	> 100 µM (inactive)	> 100 µM (inactive)	> 100 µM (inactive)	> 100 µM (inactive)	> 100	> 100 µM (inactive)		> 100 µM (inactive)	> 100 µM (inactive)	> 100 µM (inactive)	> 100 µM (inactive)	> 100 µM (inactive)	> 100 µM (inactive)	> 100 µM (inactive)	> 100 µM (inactive)	> 100 µM (inactive)
CN(C)CCC1(C2=CCCC2)CC/C(=C\c2ccccc2Cl)C1=O (stereo unspecified)	12.4 µM (inactive)	11.5 µM (inactive)	14.3 µM (inactive)	33 µM (inactive)	12.4 µM (inactive)	19.8 µM (inactive)	11.5 µM (inactive)	5.85	12.2 µM (inactive)	18.7 µM (inactive)	9.25 µM (inactive)	4.49 µM (inactive)	14.3 µM (inactive)	14.6 µM (inactive)	11.9 µM (inactive)	8.61 µM (inactive)	12.9 µM (inactive)	12.6 µM (inactive)	
NC1=NS(=O)(=O)Nc2nc(-c3ccc([N+](=O)[O-])o3)[nH]c21	16.3 µM (inactive)	12.7 µM (inactive)	20 µM (inactive)	16.6 µM (inactive)	14 µM (inactive)	17.2 µM (inactive)	23.1 µM (inactive)	19.9	14.2 µM (inactive)	19 µM (inactive)	3.6 µM (inactive)	12.9 µM (inactive)	24.7 µM (inactive)	16.3 µM (inactive)	13.8 µM (inactive)	16.8 µM (inactive)	18.6 µM (inactive)	16.9 µM (inactive)	4.73 µM (inactive)
COc1ccc(/C(Cl)=C(\C=O)c2ccc(Cl)cc2)cc1OC	19.1 µM (inactive)	7.28 µM (inactive)	12.3 µM (inactive)	9.12 µM (inactive)		8.89 µM (inactive)	7.62 µM (inactive)	3.29	4.47 µM (inactive)	5.26 µM (inactive)	2.98 µM (inactive)	6.01 µM (inactive)	5.74 µM (inactive)	4.15 µM (inactive)	3.75 µM (inactive)	14.9 µM (inactive)		3.85 µM (inactive)	2.49 µM (inactive)
O=c1[nH]cnc2[nH]nnc12	2.33 µM (inactive)	84.7 µM (inactive)	1.06 µM (active)	4.02 µM (inactive)	2.19 µM (inactive)	16 µM (inactive)	3.87 µM (inactive)	11.6	8.02 µM (inactive)	7.52 µM (inactive)	0.4 µM (active)	2.62 µM (inactive)	14 µM (inactive)	8.65 µM (inactive)	1.49 µM (inactive)	18.1 µM (inactive)	32.7 µM (inactive)	34.6 µM (inactive)	0.92 µM (active)
O=C(Nc1ccc(Cl)cc1Cl)c1c/c(=N\O)c2ccc(O)cc2o1	> 100 µM (inactive)	> 100 µM (inactive)	> 100 µM (inactive)	> 100 µM (inactive)	> 100 µM (inactive)	> 100 µM (inactive)	> 100 µM (inactive)	> 100	> 100 µM (inactive)	> 100 µM (inactive)	> 100 µM (inactive)	> 100 µM (inactive)	> 100 µM (inactive)	> 100 µM (inactive)	> 100 µM (inactive)		> 100 µM (inactive)	> 100 µM (inactive)	> 100 µM (inactive)
COc1cc(OC)c([C@@H]2OC(=O)C3C2C(=O)O[C@H]3c2cc(OC)c(OC)cc2OC)cc1OC (stereo partly specified)	> 100 µM (inactive)	> 100 µM (inactive)		70.1 µM (inactive)	> 10 µM (inactive)	> 10 µM (inactive)	> 100 µM (inactive)	> 100	72.4 µM (inactive)		> 100 µM (inactive)	> 100 µM (inactive)	> 100 µM (inactive)	> 100 µM (inactive)	> 10 µM (inactive)	> 100 µM (inactive)	> 100 µM (inactive)	> 100 µM (inactive)	51.6 µM (inactive)
CCCC/C(C)=N/NC(N)=S	> 100 µM (inactive)	> 100 µM (inactive)	> 100 µM (inactive)	> 100 µM (inactive)	> 100 µM (inactive)	> 100 µM (inactive)	> 100 µM (inactive)	> 100	> 100 µM (inactive)	> 100 µM (inactive)	> 100 µM (inactive)	> 100 µM (inactive)	> 100 µM (inactive)	> 100 µM (inactive)	> 100 µM (inactive)	> 100 µM (inactive)	> 100 µM (inactive)	> 100 µM (inactive)	> 100 µM (inactive)
C=CCCC(OCOCCOC)c1cc(C)c(O[Si](C)(C)C(C)(C)C)c(C)c1 (stereo unspecified)	28.6 µM (inactive)	22.8 µM (inactive)	15.2 µM (inactive)	17.9 µM (inactive)		19.9 µM (inactive)	13.2 µM (inactive)	13.2	11.7 µM (inactive)	22 µM (inactive)	13.3 µM (inactive)	13.8 µM (inactive)	13.6 µM (inactive)	17.3 µM (inactive)	16 µM (inactive)	14 µM (inactive)	13.5 µM (inactive)	14.3 µM (inactive)	
CCC/C(=N\NC(=O)c1cc2ccccc2cc1O)C(CC)C(=O)CCC(=O)N(Cc1ccccc1)Cc1ccccc1 (stereo unspecified)	11 µM (inactive)	29.6 µM (inactive)	19.7 µM (inactive)	18.7 µM (inactive)	33.3 µM (inactive)	34.5 µM (inactive)	43 µM (inactive)	38.4	26.3 µM (inactive)	> 100 µM (inactive)	7.62 µM (inactive)	37 µM (inactive)	20.5 µM (inactive)	33.9 µM (inactive)	64 µM (inactive)	67.5 µM (inactive)	96.6 µM (inactive)	57 µM (inactive)	31 µM (inactive)
CN(C)CC1(C)CC/C(=C\c2ccc(Cl)cc2)C1=O (stereo unspecified)	46 µM (inactive)	21.1 µM (inactive)	36.9 µM (inactive)	50.8 µM (inactive)	59 µM (inactive)	74 µM (inactive)	21.3 µM (inactive)	34.4	22.6 µM (inactive)	88.5 µM (inactive)	25.8 µM (inactive)	22.4 µM (inactive)	34.7 µM (inactive)	67.1 µM (inactive)	16.5 µM (inactive)	40.5 µM (inactive)	31.8 µM (inactive)	40.1 µM (inactive)	
O=c1cc(-c2ccccc2)oc2cc(OCCCOc3ccc4c(=O)cc(-c5ccccc5)oc4c3)ccc12	> 100 µM (inactive)	> 100 µM (inactive)		> 100 µM (inactive)	> 100 µM (inactive)	> 100 µM (inactive)	> 100 µM (inactive)	> 100	> 100 µM (inactive)	> 100 µM (inactive)	> 100 µM (inactive)	> 100 µM (inactive)	> 100 µM (inactive)	> 100 µM (inactive)	> 100 µM (inactive)	> 100 µM (inactive)	> 100 µM (inactive)	> 100 µM (inactive)	> 100 µM (inactive)
C=C1C(OC(C)=O)CC(OC(C)=O)C2(C)C(OC(C)=O)C(OC(C)=O)C3=C(C)C(OC(=O)/C=C/c4ccccc4)CC(C(OC(C)=O)C12)C3(C)C (stereo unspecified)	51.1 µM (inactive)	51.9 µM (inactive)	26.7 µM (inactive)	> 100 µM (inactive)	21.8 µM (inactive)	> 100 µM (inactive)	> 100 µM (inactive)	> 100	> 100 µM (inactive)	> 100 µM (inactive)	> 100 µM (inactive)	36.4 µM (inactive)		23.9 µM (inactive)	> 100 µM (inactive)	> 100 µM (inactive)	> 100 µM (inactive)	36.2 µM (inactive)	> 100 µM (inactive)
